The text below walks through data of EP0654042B1, “AMYLIN MUTEINS” (PFIZER INC., priority 1992, dated 1998).

Bridge positions count the residues as written; N and C are the ends. Ends that are not written are not given here.

In one test the test system is muscle or muscle cells. Briefly: suppression of insulin action (insulin action suppressing activity). Conditions: qualitative statement; no data or test conditions printed. From the text: The phrase "insulin action suppressing activity", as used throughout this Specification and the appendant claims, includes, but is not limited to, the ability of a polypeptide of this invention to suppress the effect which insulin has upon muscle or muscle cells. By way of example and not of limitation, the polypeptides of this invention suppress insulin-stimulated glycogen synthesis in muscle or muscle cells.

A further test relates to isolated soleus muscle. Conditions: Leighton et al. 1988, Cooper et al. 1988; cited from earlier work.

In the case of “Bolton-Hunter derivative of amylin: Bolton-Hunter derivative of amylin of the drawn formula wherein W is SEQUENCE ID NO:1 (KCNTATCATQRLANFLVHSSNNFGAILSSTNVGSNTY; not fully specified (C-terminus, bridges); cysteine pairing not given here; also: Bolton-Hunter reagent derivative, attachment site not given here; UniProt P10997 34-70, looked up)”, the suppress insulin action result in the test on muscle or muscle cells was “will not suppress insulin action”.

Consider “amylin: 37 amino acid polypeptide with a disulfide bond between Cys 2 and 7; secretory product of pancreatic β cells (KCNTATCATQRLANFLVHSSNNFGAILSSTNVGSNTY; disulfide 2-7; not fully specified (C-terminus); UniProt P10997 34-70, looked up)”, for which the insulin-stimulated glycogen synthesis entry in the test on isolated soleus muscle is listed as “suppresses insulin-stimulated glycogen synthesis”.
